According to publication PMC6421297, “Novel Mouse Tauopathy Model for Repetitive Mild Traumatic Brain Injury: Evaluation of Long-Term Effects on Cognition and Biomarker Levels After Therapeutic Inhibition of Tau Phosphorylation” (Frontiers in Neurology, 2019):

How the values were obtained:
[1] = system: tau phosphorylation at Thr231 and Ser202 in SH-SY5Y-(P301L) cells; format: cell-based; conditions: 6 h
Protocol: (§1) SH-SY5Y-P301L cells (gift from Prof. Fred Van Leuven, Department of Human Genetics, KU Leuven, Belgium) were cultured Dulbecco's Modified Eagle Medium (DMEM):Nutrient Mixture F-12 (DMEM/F-12, Gibco, c/o Invitrogen, Saint Aubin, France) containing 1% Penicillin-Streptomycin mixture (Gibco) and 10% fetal bovine serum (FBS, Gibco) in a humidified, 5% CO2 incubator at 37°C. Cells were split routinely once a week. Cells were seeded at a density of 1.5 x 10^6 cells/well in P60 well plates with 4 ml medium/well and exposed for 6 h to a range of ros concentrations (Figures 2–4) or to a few concentrations of various kinase inhibitors with different selectivities (Figure 3). At the end of the incubation cells were harvested for Western blotting. Cells were scraped in cold phosphate-buffered saline, centrifuged at 10,000 x g for 5 min at 4°C, and pellets were snap-frozen in liquid nitrogen. Experiments were repeated three or four times.
(§2) For Western blot analysis, cell pellets were lysed in homogenization buffer (25 mM MOPS, 15 mM EGTA, 15 mM MgCl2, 60 mM β-glycerophosphate, 15 mM p-nitrophenylphosphate, 2 mM dithiothreitol (DTT), 1 mM Na3VO4, 1 mM NaF, 1 mM disodium phenylphosphate, 1x protease inhibitor cocktail, 0.2% Nonidet P-40 substitute). Protein extracts were mixed (1:1 v/v) with sample buffer (2 × NuPAGE LDS sample buffer, 200 mM DTT) and 20 μg of total protein was loaded on NuPAGE 4–12% Bis-Tris protein gels. Electrophoresis was carried out at 70 V in MOPS buffer for 4 h. Rapid blot transfers were performed at 2.5A/25V for 7 min. […] P-tau and T-tau signals were first normalized to GAPDH from the same membranes, and then divided one by another to obtain the level of pS202 or pT231 relative to T-tau. Values are presented as mean±SEM of three or four independent experiments.

epileptic rats = system: epileptic rats; design: method as in PMID 28595035; conditions: cited from earlier work
mice following TBI = conditions: cited from earlier work
[2] = system: S202-Tau phosphorylation in SH-SY5Y-(P301L) cells; assay: Western blot of pS202-tau/T-tau in SH-SY5Y-(P301L) cells, roscovitine and/or LiCl, with coefficient of drug interaction; format: cell-based; conditions: 6 h; for tau phosphorylation (pS202-tau), individual treatment: single agent
Protocol: as §1, §2
For cell cultures and immunoblotting data the two-tailed unpaired t-test (Graphpad Prism) was used. Coefficients of drug interaction (CDI) were calculated as follows: CDI = AB/(A × B). According to the ratio pS202 tau/T-tau of each group, AB is the ratio of the combination groups to control group; A or B is the ratio of the single agent group to control group. […]

Row | Compound | reduction of tau phosphorylation by inhibitors to secondary kinase targets ([1]; 25, 50, and 100 μM) | Inhibition of tau phosphorylation at Thr231 and Ser202 ([1]; 25, 50, and 100 μM) | other results
1 | N#CC(=C(/N)Sc1ccccc1N)/C(C#N)=C(/N)Sc1ccccc1N [UO126] | none of the inhibitors to secondary kinase targets reduced tau phosphorylation |  | 
2 | CC[C@@H](CO)Nc1nc(N(C)Cc2ccc(-c3ccccn3)cc2)c2ncn(C(C)C)c2n1 [N6-methyl-CR8] |  | not | cause of decreases in P-tau at the high dose ([1]; 100 μM): likely the result of drug-associated cell toxicity
3 | COc1cccc(-c2cc(=O)c3ccccc3o2)c1N [PD098059] | none of the inhibitors to secondary kinase targets reduced tau phosphorylation |  | 
4 | O=C(NC1CCNCC1)c1[nH]ncc1NC(=O)c1c(Cl)cccc1Cl [AT7519] |  | evident | 
5 | CC[C@H](CO)Nc1nc(NCc2ccccc2)c2ncn(C(C)C)c2n1 [Roscovitine, (R)-roscovitine] |  | evident | epilepsy-induced axonal impairment (epileptic rats): reversed axonal impairment; inhibition of Thr231 and Ser202 phosphorylation ([1]; range of ros concentrations): dose-dependent inhibition; cognitive deficits, spatial learning and memory after TBI (mice following TBI): attenuated cognitive deficits and improved spatial learning and memory; inhibition of Ser202 phosphorylation, ros alone ([2]; ros alone): moderate and dose-dependent inhibition; tau phosphorylation (pS202-tau), individual treatment [2]: slightly down-regulated
6 | CCN1/C(=C/C(C)=O)Sc2ccc(OC)cc21 [TG003] | none of the inhibitors to secondary kinase targets reduced tau phosphorylation |  | 
7 | CC[C@H](CO)Nc1nc(NCc2ccc(-c3ccccn3)cc2)c2ncn(C(C)C)c2n1 [CR8] |  | evident | 
8 | CCc1cnn2c(NCc3ccc[n+]([O-])c3)cc(N3CCCC[C@H]3CCO)nc12 [SCH727965] |  | evident | 
9 | NC(=O)c1ccc(-c2nc(-c3ccc4c(c3)OCCO4)c(-c3ccccn3)[nH]2)cc1 [D4476] | none of the inhibitors to secondary kinase targets reduced tau phosphorylation |  | 
10 | CC(C)(C)c1cnc(CSc2cnc(NC(=O)C3CCNCC3)s2)o1 [SNS-032, N-[5-[[[5-(1,1-dimethylethyl)-2-oxazolyl]methyl]thio]-2-thiazolyl]-4-piperidinecarboxamide] |  | evident | 
11 | [Cl-].[Li+] [LiCl, lithium chloride] |  |  | epilepsy-induced axonal impairment (epileptic rats): reversed axonal impairment; dose-response of pS202-tau inhibition, LiCl alone ([2]; LiCl alone): no dose-response relationship; tau phosphorylation (pS202-tau), individual treatment [2]: slightly down-regulated
12 | COc1ccc2c(c1)[nH]c1c(C)nccc12 [harmine] | none of the inhibitors to secondary kinase targets reduced tau phosphorylation |  | 
13 | O=C1NC(Nc2ccccc2)=N/C1=C\c1ccc2c(c1)OCO2 [Leucettine 41] | none of the inhibitors to secondary kinase targets reduced tau phosphorylation |  | 
14 | COc1cc(OC)c(C=C2C(O)=Nc3ccccc32)c(OC)c1 [IC261] |  |  | activity at site pSer202 ([1]; 25, 50, and 100 μM): active
15 | CCC(CO)Nc1nc(N(C)Cc2ccccc2)c2ncn(C(C)C)c2n1 (centres unmarked) [N6-methyl-roscovitine] |  | not | 
